# Results from patent US20170285010A1, “Analytical Methods and Arrays for Use in the Same” (SENZAGEN AB, priority 2014, published 2017).
# Where two headings read alike, the source gives them in different places.
# Assays:
# MUTZ-3 [1] = test: GARD Respiratory Prediction Signature (GRPS) SVM classification of the independent test dataset; details: for SVM decision value: MUTZ-3, 24 h stimulation at GARD input concentration, 389 GRPS transcripts
# Procedure: (§1) The human acute myelomonocytic leukemia cell line MUTZ-3[68,69] was obtained from Leibniz-lnstitut DSMZ-Deutsche Sammlung von Mikroorganismen and Zellkulturen (DSMZ, Braunschweig, Germany). Maintenance of cells, chemical stimulation of MUTZ-3 and all subsequent isolation of mRNA and preparation of cDNA were performed as previously described. In short, a phenotypic control of MUTZ-3 was performed using flow cytometry prior to chemical stimulation to ensure cells were in an immature state. The following FITC-conjugated mouse monoclonal antibodies (mAbs) were used: CD1a (DakoCytomation, Glostrup, Denmark), CD34, CD86, HLA-DR, IgG1 (BD Biosciences, Franklin Lakes, N.J.). The following PE-conjugated mouse monoclonal antibodies were used: CD14 (DakoCytomation), CD54, CD80, IgG1 (BD Biosciences). Cell viability was determined using Propidium Iodide (BD Biosciences) staining. Samples were run on FACSCanto II instrument. Data was acquired using FACS Diva software (BD Biosciences) and analyzed using FCS Express V4 (De Novo Software, Los Angeles, Calif.). Gating was performed to exclude cell debris and non-viable cells based on forward- and side-scattering properties and quadrants established using isotype-controls. During chemical exposure, cells were seeded at 200.000 cells/ml in 24-well plates and exposed to chemical compound at the GARD input concentration. Stimulated cells were harvested after 24 h incubation at 37° C., 5% CO2 and RNA was isolated with TRIzol® reagent (Life Technologies, Carlsbad, Calif.) using standardized protocols provided by the manufacturer. In parallel, a control of the maturity state of the cells was performed by flow cytometric analysis of CD86. Preparation of cDNA and hybridization, washing and scanning of the Human Gene 1.0 ST Arrays (Affymetrix, Santa Clara, Calif., USA) was performed, according to standardized protocols provided by the manufacturer (Affymetrix).
# Gene expression data obtained from the Human Gene 1.0 ST Arrays were normalized using the Single-Channel array normalization (SCAN) algorithm, and potential batch effects between different set of experiments were adjusted using the ComBat empirical bayes method. Normalizations and batch adjustments were performed in R statistical software using the open software Bioconductor v2.14 [73] with the additional software packages SCAN.UPC [70] and sva . Normalized data was imported into Qlucore Omics Explorer 3.0 (Qlucore AB, Lund, Sweden) and visualized using Principal Component Analysis (PCA). Predictors were selected from a one-way ANOVA p-value filtration, using false discovery rate (FDR) to adjust for multiple hypothesis testing, comparing respiratory sensitizers and non-respiratory sensitizers. […] The Backward Elimination algorithm was modified to minimize the Kullback-Leibler error [53] rather than maximizing the Area Under the Receiver Operating Characteristic (AUC ROC), in order to enable signature optimization in cases where the AUC ROC reaches 1.0. […] The script for Backwards Elimination was programmed in R, with the additional package e1071 [78]. The method by which the predictive genomic biomarker signature was established was validated using cross-validation based on Support Vector Machines (SVM), based on a linear kernel, as described previously. In short, the training dataset was randomly divided into a new cross-validation training dataset comprising 70% of the stimulations, and a cross-validation test dataset comprising 30% of the stimulations. In addition, care was taken to maintain the same proportion between respiratory sensitizers and non-respiratory sensitizers as in the complete training dataset. A new predictive genomic biomarker signature was identified from the cross-validation training dataset using one-way ANOVA p-value filtration as described above.
# CD86 = CD86 expression of MUTZ-3 cells following chemical stimulation (flow cytometry); type: cell-based, human; details: MUTZ-3, 24 h stimulation, compared with vehicle/unstimulated cells, student's t-test p<0.05
# Procedure: CD86 expression of MUTZ-3 cells following chemical stimulations. […] Statistical significance was determined by student's t-test, comparing each stimulation with its corresponding vehicle, with p<0.05 indicated by *.
# Maintenance of cells, chemical stimulation of MUTZ-3 and all subsequent isolation of mRNA and preparation of cDNA were performed as previously described [41,42]. In short, a phenotypic control of MUTZ-3 was performed using flow cytometry prior to chemical stimulation to ensure cells were in an immature state. The following FITC-conjugated mouse monoclonal antibodies (mAbs) were used: CD1a (DakoCytomation, Glostrup, Denmark), CD34, CD86, HLA-DR, IgG1 (BD Biosciences, Franklin Lakes, N.J.). The following PE-conjugated mouse monoclonal antibodies were used: CD14 (DakoCytomation), CD54, CD80, IgG1 (BD Biosciences). Cell viability was determined using Propidium Iodide (BD Biosciences) staining. Samples were run on FACSCanto II instrument. Data was acquired using FACS Diva software (BD Biosciences) and analyzed using FCS Express V4 (De Novo Software, Los Angeles, Calif.). Gating was performed to exclude cell debris and non-viable cells based on forward- and side-scattering properties and quadrants established using isotype-controls. During chemical exposure, cells were seeded at 200.000 cells/ml in 24-well plates and exposed to chemical compound at the GARD input concentration. Stimulated cells were harvested after 24 h incubation at 37° C., 5% CO2 and RNA was isolated with TRIzol® reagent (Life Technologies, Carlsbad, Calif.) using standardized protocols provided by the manufacturer. In parallel, a control of the maturity state of the cells was performed by flow cytometric analysis of CD86.
# Prior to chemical challenge, cells were quality controlled by measuring the cellular expression of common myeloid and dendritic cell markers using flow cytometry. These markers included CD1a, CD14, CD34, CD54, CD80, CD86 and HLA-DR.
# MUTZ-3 [2] = test: Chemical cytotoxicity, Rv90 (90% relative viability), propidium iodide staining
# Source text: A panel of 32 reference chemicals comprising a selection of 10 well characterized respiratory sensitizers and 22 non-respiratory sensitizers, collectively termed the training dataset, were used for cell stimulations in order to establish the predictive genomic biomarker signature. […] Additionally, a panel of 25 chemicals, including 6 respiratory sensitizers and 19 non-respiratory sensitizers, collectively termed the independent test dataset, were used for cell stimulations in order to form an independent testset for validation of the identified predictive genomic biomarker signature. The independent training dataset comprised both control chemicals, included during the training of the model, as well as chemicals previously unseen during training of the model. […] All chemicals were purchased from Sigma-Aldrich (St. Louis, Mo., USA). Chemicals were dissolved and diluted into GARD input concentration in either water or DMSO prior to stimulation of cells. For chemicals dissolved in DMSO, the in-well concentration of DMSO was 0.1%. Monitoring of chemical cytotoxicity and establishment of GARD input concentration for each chemical compound was performed as previously described. […] Toxic compounds were used at a concentration yielding 90% relative viability (Rv90). The criterion that was first met determined the GARD input concentration for each compound.
# as §1
# [3] = Max solubility of chemicals for establishing the GARD input concentration
# [4] = occupational asthma and allergic contact dermatitis, ref. [64]; cited from earlier work
# [5] = concentration yielding 90% relative viability, MUTZ-3, Table 1
# [6] = concentration yielding 90% relative viability, MUTZ-3, Table 2
# [7] = respiratory sensitizer if any replicate stimulation has SVM decision value >0
# [8] = reference compounds used during assay development (Table 1)
SMILES,Classification Pos if 1 sample >0 (MUTZ-3 [1]),SVM decision value (MUTZ-3 [1]; replicate 1),SVM decision value (MUTZ-3 [1]; replicate 2),SVM decision value (MUTZ-3 [1]; replicate 3),other results
CCCCCCCC(=O)O [Octanoic acid],Non-sensitizer,−0.65,−0.79,−1.22,
C1CNCCN1 [Piperazine],Non-sensitizer,−0.05,−0.12,,
Nc1ccccc1O [2-Aminophenol],,,,,Chemically induced up-regulation of CD86 (CD86): up-regulation of CD86 was also observed; Rv90 (MUTZ-3 [2]; [5]): 100 µM
"O=[N+]([O-])c1ccc(Cl)c([N+](=O)[O-])c1 [2,4-dinitrochlorobenzene]",,−1.66,−1.18,−1.90,Rv90 (MUTZ-3 [2]; [6]): 4 µM; Classification Pos if 1 sample >0 (MUTZ-3 [1]; [7]): Non-sensitizer
C=O [Formaldehyde],,,,,Rv90 (MUTZ-3 [2]; human): 80 µM
[Cl][Pt-2]([Cl])([Cl])([Cl])([Cl])[Cl].[NH4+].[NH4+] [Ammonium hexachloroplatinate],,,,,"Chemically induced up-regulation of CD86 (CD86): statistically significant; Max solubility [3, 8]: 35 µM"
C=CCc1ccc(O)c(OC)c1 [Eugenol],Non-sensitizer,−1.67,−1.53,−1.51,Rv90 (MUTZ-3 [2]; human): 300 µM
Oc1ccccc1 [Phenol],Non-sensitizer,,,,
O=c1n(CC2CO2)c(=O)n(CC2CO2)c(=O)n1CC1CO1 (centres unmarked) [triglycidylisocyanurate],,,,,"Sensitization in humans (OA, ACD) [4]: cause both OA and ACD"
CC(O)C(=O)O (centres unmarked) [Lactic acid],,−1.20,−0.81,−0.89,
Nc1ccc(N)cc1 [p-phenylenediamine],,−1.38,−1.19,−1.80,Rv90 (MUTZ-3 [2]; [6]): 75 µM; Classification Pos if 1 sample >0 (MUTZ-3 [1]; [7]): Non-sensitizer
O=CCCCC=O [Glutaraldehyde],,,,,Chemically induced up-regulation of CD86 (CD86): statistically significant; Rv90 (MUTZ-3 [2]; human): 10 µM
O=CC=O [Glyoxal],,−1.02,−0.69,−0.56,Rv90 (MUTZ-3 [2]; [6]): 300 µM; Classification Pos if 1 sample >0 (MUTZ-3 [1]; [7]): Non-sensitizer
Cc1ccc(S(=O)(=O)[N-]Cl)cc1.[Na+] [Chloramine T],,0.52,0.59,,Classification Pos if 1 sample >0 (MUTZ-3 [1]; [7]): Sensitizer (classified as a respiratory sensitizer if any of replicate stimulations have a SVM decision value > 0)
Sc1nc2ccccc2s1 [2-mercaptobenzothiazole],,−0.44,−0.43,−0.57,
Oc1cccc(O)c1 [Resorcinol],Non-sensitizer,−1.01,−0.99,−1.40,
O=C(O)c1ccccc1O [Salicylic acid],Non-sensitizer,−0.73,−1.08,−1.13,
OCC(O)CO [Glycerol],Non-sensitizer,−1.05,−1.11,−0.77,
O=C1OC(=O)c2ccccc21 [Phtalic Anhydride],,0.20,−0.12,,"Max solubility ([3]; chemicals of the independent dataset (Table 2)): 200 µM; Max solubility [3, 8]: 200 µM; Classification Pos if 1 sample >0 (MUTZ-3 [1]; [7]): Sensitizer (classified as a respiratory sensitizer if any of replicate stimulations have a SVM decision value > 0)"
OCC=Cc1ccccc1 [Cinnamyl alcohol],Non-sensitizer,−0.57,−1.44,−1.26,
O=C(O)c1ccc(O)cc1 [p-hydroxybenzoic acid],Non-sensitizer,−0.81,−0.56,−1.09,
Clc1ccccc1 [Chlorobenzene],,−1.03,−0.76,−1.15,SVM decision value (MUTZ-3 [1]; replicate 4): 0.24; SVM decision value (MUTZ-3 [1]; replicate 5): 0.06; Classification Pos if 1 sample >0 (MUTZ-3 [1]; [7]): Sensitizer (classified as a respiratory sensitizer if any of replicate stimulations have a SVM decision value > 0)
CCOC(=O)c1ccccc1C(=O)OCC [Diethyl phthalate],,−1.37,−0.96,−1.22,Classification Pos if 1 sample >0 (MUTZ-3 [1]; [7]): Non-sensitizer
C=CC(=O)OCCO [2-Hydroxyethyl acrylate],,,,,Rv90 (MUTZ-3 [2]; [5]): 100 µM
O=Cc1ccccc1 [Benzaldehyde],,−0.79,−0.87,−0.70,Classification Pos if 1 sample >0 (MUTZ-3 [1]; [7]): Non-sensitizer
CC=Cc1ccc(O)c(OC)c1 [Isoeugenol],,,,,Rv90 (MUTZ-3 [2]; human): 300 µM
CCCCO [1-Butanol],Sensitizer (key: Sensitizer: classified as a respiratory sensitizer if any of replicate stimulations have a SVM decision value > 0),−0.32,0.12,,
O=C=Nc1ccc(Cc2ccc(N=C=O)cc2)cc1 [Methylene diphenol diisocyanate],,,,,"Max solubility [3, 8]: 50 µM"
CCCCCCCCCCCCOS(=O)(=O)[O-].[Na+] [Sodium dodecyl sulphate],Non-sensitizer,−1.49,−0.80,−1.30,Rv90 (MUTZ-3 [2]; [6]): 200 µM
